Assays:
[1] = system: rape; test: Test B pre/postemergence rape; assay type: in vivo, Brassica napus; details: for Rape plant response rating: scale of 0 to 10 where 0 is no effect and 10 is complete control
Summary of the method: (§1)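 Test chemicals in a non-phytotoxic solvent mixture with surfactant were sprayed preemergence onto planted seeds and postemergence onto plants 2 to 18 cm tall (1- to 4-leaf stage). After twelve to sixteen days in a greenhouse, injury was visually rated against untreated controls from 0 (no effect) to 10 (complete control).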

[2] = system: duck salad; test: Test B flood test duck salad; assay type: in vivo, Heteranthera limosa
Summary of the method: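 Read-out is a visual response score from 0 (no effect) to 10 (complete control), assigned by comparison with untreated controls. Treatment was applied at the 2-leaf stage, and plants stayed in the greenhouse for twelve to sixteen days before scoring.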

[3] = system: soybean; test: Test B pre/postemergence soybean; assay type: in vivo, Glycine max; details: for Soybean plant response rating: scale of 0 to 10 where 0 is no effect and 10 is complete control
Summary of the method: as §1

[4] = system: surinam grass; test: Test B pre/postemergence surinam grass; assay type: in vivo, Brachiaria decumbens
Summary of the method: as §1

[5] = system: wheat; test: Test B pre/postemergence wheat; assay type: in vivo, Triticum aestivum; details: for Wheat plant response rating: scale of 0 to 10 where 0 is no effect and 10 is complete control
Summary of the method: as §1

[6] = system: pigweed; test: Test B pre/postemergence pigweed; assay type: in vivo, Amaranthus retroflexus; details: for Redroot pigweed plant response rating: scale of 0 to 10 where 0 is no effect and 10 is complete control
Summary of the method: as §1

[7] = system: morningglory; test: Test B pre/postemergence morningglory; assay type: in vivo, Ipomoea hederacea; details: for Morningglory plant response rating: scale of 0 to 10 where 0 is no effect and 10 is complete control
Summary of the method: as §1

[8] = system: crabgrass; test: Test B pre/postemergence crabgrass; assay type: in vivo, Digitaria sanguinalis; details: for Crabgrass plant response rating: scale of 0 to 10 where 0 is no effect and 10 is complete control
Summary of the method: as §1

[9] = system: sugar beet; test: Test B pre/postemergence sugar beet; assay type: in vivo, Beta vulgaris; details: for Sugarbeets plant response rating: scale of 0 to 10 where 0 is no effect and 10 is complete control
Summary of the method: as §1

[10] = system: cocklebur; test: Test B pre/postemergence cocklebur; assay type: in vivo, Xanthium strumarium; details: for Cocklebur plant response rating: scale of 0 to 10 where 0 is no effect and 10 is complete control
Summary of the method: as §1

[11] = system: corn; test: Test B pre/postemergence corn; assay type: in vivo, Zea mays; details: for Corn plant response rating: scale of 0 to 10 where 0 is no effect and 10 is complete control
Summary of the method: as §1

[12] = system: purple nutsedge; test: Test B pre/postemergence purple nutsedge; assay type: in vivo, Cyperus rotundus; details: for Nutsedge plant response rating: scale of 0 to 10 where 0 is no effect and 10 is complete control
Summary of the method: as §1

[13] = system: giant foxtail; test: Test B pre/postemergence giant foxtail; assay type: in vivo, Setaria faberii; details: for Giant foxtail plant response rating: scale of 0 to 10 where 0 is no effect and 10 is complete control
Summary of the method: as §1

[14] = system: velvetleaf; test: Test B pre/postemergence velvetleaf; assay type: in vivo, Abutilon theophrasti; details: for Velvetleaf plant response rating: scale of 0 to 10 where 0 is no effect and 10 is complete control
Summary of the method: as §1

[15] = system: bedstraw; test: Test B pre/postemergence bedstraw; assay type: in vivo, Galium aparine
Summary of the method: as §1

[16] = Postemergence, Rate 125 g/ha, scale 0 to 10, 0 is no effect, 10 is complete control
[17] = Preemergence, Rate 62 g/ha, scale 0 to 10 (0 no effect, 10 complete control)
[18] = Rate 500 g/ha, Postemergence, scale 0 to 10, 0 no effect, 10 complete control
[19] = Preemergence, Rate 250 g/ha, scale of 0 to 10 where 0 is no effect and 10 is complete control
[20] = Preemergence, Rate 500 g/ha, scale of 0 to 10 where 0 is no effect and 10 is complete control
[21] = Rate 62 g/ha, Postemergence, scale of 0 to 10 where 0 is no effect and 10 is complete control
[22] = Rate 250 g/ha, Postemergence, scale of 0 to 10 where 0 is no effect and 10 is complete control

CC(C)C(C)n1c(=O)on(C(=O)N(c2ccccc2)C(C)C)c1=O (stereo not shown) [Compound 355]
Plant response rating, Rape [1, 16]: 0 | Plant response rating, Rape [1, 17]: 0 | Rape plant response rating (0 to 10 scale) ([1]; Preemergence, Rate 125 g/ha): 0 | Rape plant response rating ([1]; Preemergence, Rate 250 g/ha): 0 | Rape plant response rating ([1]; Preemergence, Rate 500 g/ha): 5 | Rape plant response rating ([1]; Rate 62 g/ha, Postemergence): 0 | Plant response rating, Rape [1, 18]: 0 | Plant response rating, Ducksalad ([2]; Postemergence (flood test), Rate 125 g/ha, scale 0 to 10, 0 is no effect, 10 is complete control): 0 | Ducksalad plant response rating ([2]; Rate 62 g/ha, Postemergence (flood test species), scale of 0 to 10 where 0 is no effect and 10 is complete control): 0 | Plant response rating, Ducksalad ([2]; Rate 500 g/ha, listed under Postemergence (flood test species), scale 0 to 10, 0 no effect, 10 complete control): 0 | Plant response rating, Soybean [3, 16]: 2 | Plant response rating, Soybean [3, 17]: 0 | Soybean plant response rating (0 to 10 scale) ([3]; Preemergence, Rate 125 g/ha): 0 | Soybean plant response rating ([3]; Preemergence, Rate 250 g/ha): 0 | Soybean plant response rating ([3]; Preemergence, Rate 500 g/ha): 0 | Soybean plant response rating ([3]; Rate 62 g/ha, Postemergence): 1 | Plant response rating, Soybean [3, 18]: 3 | Plant response rating, B. signalgrass [4, 16]: 0 | Plant response rating, B. signalgrass [4, 17]: 0 | B. signalgrass plant response rating (0 to 10 scale, 0 is no effect, 10 is complete control) ([4]; Preemergence, Rate 125 g/ha): 2 | B. signalgrass plant response rating [4, 19]: 3 | B. signalgrass plant response rating [4, 20]: 6 | B. signalgrass plant response rating [4, 21]: 0 | Plant response rating, B. signalgrass [4, 22]: 0 | Plant response rating, B. signalgrass [4, 18]: 2 | Plant response rating, Wheat [5, 16]: 2 | Plant response rating, Wheat [5, 17]: 0 | Wheat plant response rating (0 to 10 scale) ([5]; Preemergence, Rate 125 g/ha): 0 | Wheat plant response rating ([5]; Preemergence, Rate 250 g/ha): 0 | Wheat plant response rating ([5]; Preemergence, Rate 500 g/ha): 2 | Wheat plant response rating ([5]; Rate 62 g/ha, Postemergence): 0 | Plant response rating, Wheat [5, 18]: 3 | Plant response rating, Redroot pigweed [6, 16]: 0 | Redroot pigweed plant response rating (0 to 10 scale) ([6]; Preemergence, Rate 125 g/ha): 7 | Redroot pigweed plant response rating ([6]; Preemergence, Rate 250 g/ha): 10 | Redroot pigweed plant response rating ([6]; Preemergence, Rate 500 g/ha): 10 | Redroot pigweed plant response rating ([6]; Rate 62 g/ha, Postemergence): 0 | Plant response rating, Redroot pigweed [6, 18]: 3 | Plant response rating, Morningglory [7, 16]: 5 | Plant response rating, Morningglory [7, 17]: 0 | Morningglory plant response rating (0 to 10 scale) ([7]; Preemergence, Rate 125 g/ha): 0 | Morningglory plant response rating ([7]; Preemergence, Rate 250 g/ha): 0 | Morningglory plant response rating ([7]; Preemergence, Rate 500 g/ha): 2 | Morningglory plant response rating ([7]; Rate 62 g/ha, Postemergence): 2 | Plant response rating, Morningglory [7, 18]: 8 | Plant response rating, Crabgrass [8, 16]: 0 | Plant response rating, Crabgrass [8, 17]: 4 | Crabgrass plant response rating (0 to 10 scale) ([8]; Preemergence, Rate 125 g/ha): 10 | Crabgrass plant response rating ([8]; Preemergence, Rate 250 g/ha): 10 | Crabgrass plant response rating ([8]; Preemergence, Rate 500 g/ha): 10 | Crabgrass plant response rating ([8]; Rate 62 g/ha, Postemergence): 0 | Plant response rating, Crabgrass [8, 18]: 2 | Plant response rating, Sugarbeets [9, 16]: 0 | Plant response rating, Sugarbeets [9, 17]: 0 | Sugarbeets plant response rating (0 to 10 scale) ([9]; Preemergence, Rate 125 g/ha): 0 | Sugarbeets plant response rating ([9]; Preemergence, Rate 250 g/ha): 2 | Sugarbeets plant response rating ([9]; Preemergence, Rate 500 g/ha): 3 | Sugarbeets plant response rating ([9]; Rate 62 g/ha, Postemergence): 0 | Plant response rating, Sugarbeets [9, 18]: 0 | Plant response rating, Cocklebur [10, 16]: 0 | Plant response rating, Cocklebur [10, 17]: 0 | Cocklebur plant response rating (0 to 10 scale) ([10]; Preemergence, Rate 125 g/ha): 0 | Cocklebur plant response rating ([10]; Preemergence, Rate 250 g/ha): 0 | Cocklebur plant response rating ([10]; Rate 62 g/ha, Postemergence): 0 | Plant response rating, Cocklebur [10, 18]: 4 | Plant response rating, Corn [11, 16]: 0 | Plant response rating, Corn [11, 17]: 0 | Corn plant response rating (0 to 10 scale) ([11]; Preemergence, Rate 125 g/ha): 0 | Corn plant response rating ([11]; Preemergence, Rate 250 g/ha): 3 | Corn plant response rating ([11]; Preemergence, Rate 500 g/ha): 4 | Corn plant response rating ([11]; Rate 62 g/ha, Postemergence): 0 | Plant response rating, Corn [11, 18]: 0 | Plant response rating, Nutsedge [12, 16]: 0 | Plant response rating, Nutsedge [12, 17]: 0 | Nutsedge plant response rating (0 to 10 scale) ([12]; Preemergence, Rate 125 g/ha): 0 | Nutsedge plant response rating ([12]; Preemergence, Rate 250 g/ha): 0 | Nutsedge plant response rating ([12]; Preemergence, Rate 500 g/ha): 0 | Nutsedge plant response rating ([12]; Rate 62 g/ha, Postemergence): 0 | Plant response rating, Nutsedge [12, 18]: 0 | Plant response rating, Giant foxtail [13, 16]: 2 | Plant response rating, Giant foxtail [13, 17]: 10 | Giant foxtail plant response rating (0 to 10 scale) ([13]; Preemergence, Rate 125 g/ha): 10 | Giant foxtail plant response rating ([13]; Preemergence, Rate 250 g/ha): 10 | Giant foxtail plant response rating ([13]; Preemergence, Rate 500 g/ha): 10 | Giant foxtail plant response rating ([13]; Rate 62 g/ha, Postemergence): 2 | Plant response rating, Giant foxtail [13, 18]: 8 | Plant response rating, Velvetleaf [14, 16]: 0 | Plant response rating, Velvetleaf [14, 17]: 0 | Velvetleaf plant response rating (0 to 10 scale) ([14]; Preemergence, Rate 125 g/ha): 2 | Velvetleaf plant response rating ([14]; Preemergence, Rate 250 g/ha): 3 | Velvetleaf plant response rating ([14]; Preemergence, Rate 500 g/ha): 5 | Velvetleaf plant response rating ([14]; Rate 62 g/ha, Postemergence): 0 | Plant response rating, Velvetleaf [14, 18]: 2 | Plant response rating, Bedstraw [15, 16]: 0 | Plant response rating, Bedstraw [15, 17]: 0 | Bedstraw plant response rating [15, 19]: 0 | Bedstraw plant response rating [15, 20]: 9 | Bedstraw plant response rating [15, 21]: 0 | Plant response rating, Bedstraw [15, 22]: 0 | Plant response rating, Bedstraw [15, 18]: 0

From US6737383B1, “Herbicidal oxadiazolidines” (priority 1999, dated 2004)
